These results are taken from US20120095030A1, “METHODS AND KITS TO PREDICT THERAPEUTIC OUTCOME OF TYROSINE KINASE INHIBITORS” (THE TRANSLATIONAL GENOMICS RESEARCH INSTITUTE, priority 2009, published 2012).

Read-outs that look alike come from different tables or passages of the source. Where only a bound is given, the exact number is not on record here.

Common to all, as to type: cell-based
For one test, the system named is A549 NSCLC cell line. As to the kind of experiment: AlamarBlue proliferation assay, A549. Conditions: Homo sapiens. The method, then:
(§1) Cytotoxicity is measured using fluorescence spectrophotometry.
(§2) TKI sensitivity was determined in NSCLC cell lines. Vandetanib and sunitinib sensitivity was measured in seven NSCLC cell lines. Erlotinib sensitivity was measured in nine NSCLC cell lines. An AlamarBlue proliferation assay at 72 hours was used to measure TKI sensitivity. GraphPad Prism 4.01 was used to determine IC50 values. Expression of seven miRNAs was measured by qRT-PCR. qRT-PCR data were normalized to the reference RNU6 and fold changes were computed against the selected sensitive cell line for each drug. A two-sided z-test was used to compute the p-values for the fold changes. A score was calculated for each miRNA/drug combination to see whether a miRNA can determine resistance across cell lines. Fold changes were first ternarized and assigned a value of +1, −1, or 0. Elevated miRNA expression relative to control (fold change>1 AND p-value<0.05) was assigned a value of +1. Reduced miRNA expression relative to control (fold change<1 AND p-value<0.05) was assigned a value of −1. Any non-significant fold change (p-value>0.05) was assigned a value of 0. These values were then multiplied by a value of +1 or −1 as assigned by the resistance characteristics of the cell line: Resistant cell lines were assigned a value=+1. Sensitive cell lines were assigned a value=−1. The final score was computed by the sum of the points for the cells lines divided by the number of cell lines (the reference cell line was not used in computing the scores).
(Alamar Blue is a resazurin reagent that responds to reducing activity.)

Another test relates to H358 NSCLC cell line. The test is described as follows: AlamarBlue proliferation assay, H358. Conditions: Homo sapiens. The method, then:
as §1, §2

Another test concerns H460 NSCLC cell line. The test is described as follows: AlamarBlue proliferation assay, H460. The conditions noted are these: Homo sapiens. The method, then:
as §1, §2

Another test concerns H520 NSCLC cell line. The test is described as follows: AlamarBlue proliferation assay, H520. The conditions noted are these: Homo sapiens. The method, then: as §1, §2
For the next test, the system named is H1703 NSCLC cell line. The test is described as follows: AlamarBlue proliferation assay, H1703. Conditions: Homo sapiens. The method, then: as §1, §2
The subject of another test is H2122 NSCLC cell line. The test is described as follows: AlamarBlue proliferation assay, H2122. The conditions noted are these: Homo sapiens. The method, then:
as §1, §2

Another test concerns HCC4006 NSCLC cell line. The test is described as follows: AlamarBlue proliferation assay, HCC4006. The conditions noted are these: Homo sapiens, 72 hours. The method, then:
as §1
as §2, with “The final score was computed by the sum of the points for the cells lines divided by the number of cell lines (the reference cell line was not used in computing the scores).” left out

The test system of the next test is H2073 NSCLC cell line. As to the kind of experiment: AlamarBlue proliferation assay, H2073. Conditions: NCI-H2073, 72 hours. The method, then: as §1
as §2, with “The final score was computed by the sum of the points for the cells lines divided by the number of cell lines (the reference cell line was not used in computing the scores).” left out

Test [1] concerns NSCLC cell lines classified as resistant. As to the kind of experiment: AlamarBlue proliferation assay, NSCLC lines classified as resistant. The conditions noted are these: read-out: IC50s of the remaining lines classified as resistant.
Method: (§4) Cells in the log phase of expansion are harvested and counted. The cells are then adjusted to a density of 1×10^4 cells/ml, though the optimum cell density may vary between cell types. […] The AlamarBlue® reagent is mixed, and then aseptically added to the cells in an amount around 10% of the well volume. Cells are incubated in the presence of the reagent from 4-8 hours. Cytotoxicity is measured using fluorescence spectrophotometry. Absorbance is measured at 570 nm and 600 nm blanked in a plate containing medium only. To calculate the percent difference in reduction between treated and control cells in Percentage difference between treated and control cells
(§5) TKI sensitivity was determined in NSCLC cell lines. […] An AlamarBlue proliferation assay at 72 hours was used to measure TKI sensitivity. GraphPad Prism 4.01 was used to determine IC50 values.
Test [2] deals with H1703 Sunitinib resistant line A (H1703 SRa). The test is described as follows: Alamar blue assay, H1703 SRa. Conditions: Homo sapiens, NCI-H1703, read-out: Sunitinib IC50(μM), Example 3, mean of three experiments. The method, then:
(§3) GraphPad Prism 4.01 was used to calculate IC50 values. […] GenoSensor GenoExplorer™ microRNA Expression System (Sanger miRNA Registry version 14 containing probes for 904 mature miRNAs and 450 pre-miRNAs) was used to screen miR expression. Differences in miRs expression between the parent and resistant cells were identified using at test with Benjamini-Hochberg correction and validated by qPCR. A score was calculated for each miRNA to determine whether a miRNA can predict SR.

Test [3] relates to H1703 Sunitinib resistant line B (H1703 SRb). As to the kind of experiment: Alamar blue assay, H1703 SRb. The conditions noted are these: Homo sapiens, NCI-H1703, read-out: Sunitinib IC50(μM), Example 3, mean of three experiments. The method, then: as §3
For another test, the system named is HCC827 NSCLC cell line. As to the kind of experiment: AlamarBlue proliferation assay, HCC827. The conditions noted are these: Homo sapiens, 72 hours.
[4] abbreviates: A549, AlamarBlue proliferation, 72 hours, read-out: IC50.
[5] abbreviates: NCI-H358, H358, AlamarBlue proliferation, 72 hours, read-out: IC50.
[6] abbreviates: NCI-H460, H460, AlamarBlue proliferation, 72 hours, read-out: IC50.
The mark [7] stands for this setting: NCI-H520, H520, AlamarBlue proliferation, 72 hours, read-out: IC50.
Where [8] appears, read: NCI-H1703, H1703, AlamarBlue proliferation, 72 hours, read-out: IC50.
[9] abbreviates: NCI-H2122, H2122, AlamarBlue proliferation, 72 hours, read-out: IC50.
Where [10] appears, read: range across resistant NSCLC lines, 72 hours.

Method for HCC827 NSCLC cell line: One method of measuring IC50 by AlamarBlue proliferation that may be used in determining an IC50 is as follows:
as §4, §5

For the compound `C#Cc1cccc(Nc2ncnc3cc(OCCOC)c(OCCOC)cc23)c1` [Erlotinib, N-(3-ethynylphenyl)-6,7-bis(2-methoxyethoxy)quinazolin-4-amine], the IC50 with A549 NSCLC cell line (setting [4]) was greater than 50 µM; in the test with H358 NSCLC cell line (setting [5]), 28.6 µM; with H460 NSCLC cell line (setting [6]), 39.2 µM; in the test on H520 NSCLC cell line (setting [7]) it was greater than 50 µM; in the test with H1703 NSCLC cell line (setting [8]), greater than 50 µM; with H2122 NSCLC cell line (setting [9]), 12.3 µM. In addition, the IC50 with HCC4006 NSCLC cell line is 0.02 µM; in the test on H2073 NSCLC cell line, 9.7 µM; in test [1] (72 h), no less than 9.7 µM.
Consider `CCN(CC)CCNC(=O)c1c(C)[nH]c(/C=C2\C(=O)Nc3ccc(F)cc32)c1C` [Sunitinib, N-[2-(diethylamino)ethyl]-5-[(Z)-(5-fluoro-1,2-dihydro-2-oxo-3H-indol-3-ylidine)methyl]-2,4-dimethyl-1H-pyrrole-3-carboxamide], for which the IC50 in the test on A549 NSCLC cell line (read-out: Sunitinib IC50(μM), A549, Example 3, mean of three experiments) is 5.5 µM; in the test on A549 NSCLC cell line (setting [4]) it was 5.5 µM; with H358 NSCLC cell line (NCI-H358, read-out: Sunitinib IC50(μM), H358, Example 3, mean of three experiments), 14.2 µM; with H358 NSCLC cell line (setting [5]), 14.2 µM; in the test with H460 NSCLC cell line (NCI-H460, read-out: Sunitinib IC50(μM), H460, Example 3, mean of three experiments), 5.6 µM; with H460 NSCLC cell line (setting [6]), 5.6 µM. The IC50 in the test with H520 NSCLC cell line (NCI-H520, read-out: Sunitinib IC50(μM), H520, Example 3, mean of three experiments) came out at 8.2 µM; in the test with H520 NSCLC cell line (setting [7]), 8.2 µM; in the test with H1703 NSCLC cell line (NCI-H1703, read-out: Sunitinib IC50(μM), H1703 control, Example 3, mean of three experiments), 0.13 µM; in the test on H1703 NSCLC cell line (setting [8]) it was 0.51 µM; in the test on H2122 NSCLC cell line (NCI-H2122, read-out: Sunitinib IC50(μM), H2122, Example 3, mean of three experiments) it was 4.8 µM; in the test on H2122 NSCLC cell line (setting [9]), 4.8 µM. For the same compound, the IC50 is 7.6 µM in test [2], 4.37 µM in test [3] and 4.8 to 14.2 µM in test [1] (setting [10]).
On to `COc1cc2c(Nc3ccc(Br)cc3F)ncnc2cc1OCC1CCN(C)CC1` [Vandetanib], for which the IC50 is 9.7 µM with A549 NSCLC cell line (setting [4]); 4.2 µM in the test with H358 NSCLC cell line (setting [5]); 13.9 µM with H460 NSCLC cell line (setting [6]); 12.1 µM with H520 NSCLC cell line (setting [7]); 2.1 µM with H1703 NSCLC cell line (setting [8]); 5.9 µM in the test with H2122 NSCLC cell line (setting [9]). The values for the IC50 (in the test with HCC827 NSCLC cell line; in test [1] (setting [10])) were 0.55 µM and 2.1 to 13.9 µM, respectively.
